Laboratory results taken from patent publication US20130059295A1 (priority 2011, published 2013).
≈ marks a conversion by molar mass, not a printed value.

Legend:
[1] = tested on: fatty acid biosensor plasmids pLR-rfp and pAR-rfp in fadE knockout DH1 E. coli cells; test: microbe, parasite or virus in culture; type: cell-based
[2] = tested on: fatty acid biosensor plasmids in DH1 fadD knockout strain; type: cell-based, E. coli; conditions: up to the addition of 1 mM oleic acid
[3] = tested on: fatty acid sensing strain (pBARk-RFP and pE8a-fadR in E. coli); test: Fatty acid biosensor pBARk-RFP with pE8a-fadR, oleic acid added to growth media (Example 3); type: cell-based; conditions: plasmid pBARk-RFP, over a broad range of oleic acid concentration, 12 hours
FadR = FadR (Escherichia coli, UniProt P0A8V6); conditions: read-out: Kd of FadR binding to oleic acid; cited from earlier work
FadR, sequence (P0A8V6 whole entry): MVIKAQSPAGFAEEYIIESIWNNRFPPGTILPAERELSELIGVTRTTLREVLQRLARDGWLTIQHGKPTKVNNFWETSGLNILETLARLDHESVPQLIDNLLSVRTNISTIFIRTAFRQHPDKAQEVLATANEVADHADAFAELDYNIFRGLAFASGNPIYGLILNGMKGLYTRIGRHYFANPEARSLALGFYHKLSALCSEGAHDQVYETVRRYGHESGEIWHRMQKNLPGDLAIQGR

[4] = tested on: E. coli fadBA promoter (PfadBA); conditions: upon the addition of 5 mM oleic acid; cited from earlier work
[5] = cited from earlier work
HucR = conditions: read-out: Kd (apparent), one value printed for the listed ligands; cited from earlier work

Structure (SMILES)	EC50 ([1]; Escherichia coli, 12 h, read-out: apparent half maximal effective concentration (EC50)) [µM]	fluorescence change upon the addition of oleic acid ([1]; pAR-rfp, fadE knockout DH1 E. coli) [fold]	induction of RFP expression [2]	increase in fluorescence signal [3]	Kd (FadR) [µM]	increased expression level of PfadBA [4] [fold]	solubility limit in aqueous solution [5] [mM]	Kd (HucR) [µM]
CCCCCCCC/C=C\CCCCCCCC(=O)O [oleic acid]	35 to 60	60	no induction of RFP expression was detected	more than 50 fold	5	5	5 (≈ 1410 µg/mL)	
O=C(O)c1ccccc1O [salicylate]								11.6
O=c1[nH]c(=O)c2[nH]c(=O)[nH]c2[nH]1 [uric acid]								11.6
